# Measured values as given in patent US10357537B2, “Cyclotides as immunosuppressive agents” (priority 2011, dated 2019).
# Bridge positions count the residues as written; N and C are the ends. Peptide text beside a SMILES is read from it.
# Assays:
# [1] = system: IL-2 surface receptor CD25 on PBMC; assay: IL-2 surface receptor CD25 expression, FACS; assay type: cell-based, human; conditions: cyclotides 4 μM, CsA 5 μg/mL, PHA-L; stimulated untreated PBMCs = 100%
# Description: PBMCs were isolated from blood samples of healthy adults that were provided by the transfusion center of the university hospital in Freiburg (Germany). […] The lymphocyte-enriched layer was transferred into a new vessel and washed three times with PBS and centrifuged again (10 min, twice with 300×g and last time with 800 rpm, 20° C.). For the following experiments, the cells were either stained with CFSE or diluted with medium to 4*10^6 cells/ml. Cells were counted in alight microscope using trypan blue staining and a hemocytometer.
# Following purification, PBMCs were equilibrated for 2 h at 37° C. […] This was followed by washing of each well with 100 μl PBS (centrifugation for 5 min, 1000 rpm, 20° C.) and re-suspending the cells in 100 μl medium for further assays.
# Activated cells were transferred into a 96-well plate, centrifuged (5 min, 1000 rpm, 20° C.), washed one time with 100 μl FACS-buffer and stained with CD25 PE for 15 min at 4° C. Then cells were washed twice with FCS-buffer and resuspended in 100 μl FACS-buffer, transferred into FACS vials with a total volume of 250 μl and the expression of IL2 surface receptor CD25 was measured by FACS analysis using a FACSCalibur instrument (BD Biosciences).
# Amongst other pathways, T-cell proliferation is determined by binding of the cytokine IL-2 to its cell surface receptor. Therefore the influence of cyclotides on the expression of the IL-2 receptor was tested. […] As control substance CsA was used. […] Treatment with V10A yields 114%±12.5, V10K yields 112%±16.3 and T8K yields 114%±17.3 CD25 surface expression after 24 h as compared to the control (FIG. 11B).
# [2] = system: degranulation marker LAMP-1 (CD107a) on activated PBMC; assay: CD107a degranulation analysis; assay type: cell-based, human; conditions: after 36 h; T20K 4 μM, CsA 5 μg/mL
# Description: FIG. 16. Degranulation capacity of cyclotide-treated activated human PBMC. […] After 36 hour of cultivation the cells were restimulated with PMA/Ionomycin for 2.5 hours in the presence of a CD107a mAbs and GolgiStop reagent to determine the amount of degranulation by flow cytometry. Representative data are shown in dot plots (A) and in (B) data are presented as mean and standard deviation (SD) of three independent experiments.
# Activated cells were grown for 36 h and then treated for re-stimulation with PMA (50 ng/ml) und ionomycin (500 ng/ml) and stained with CD107a PE. After 1 h the reaction was stopped with 2 μl Golgi-Stop (1:10) and incubated for 2.5 h at 37° C. The cells were transferred into a 96-well plate, centrifuged (5 min, 1000 RPM, 20° C.) and washed with 100 μl FACS-buffer. Afterwards, PBMCs were stained with CD8 PE-Cy5 for 15 min at 4° C. and following to wash cycles with FACS-buffer the cells were resuspended in 100 μl, transferred into FACS vials with a total volume of 250 μl and the degranulation was measured by FACS analysis.
# After determining the influence of cyclotide treatment on the effector function of PBMCs on the basis of measuring IFN-gamma and TNF-alpha cytokine levels, it is of interest to determine an effect of cyclotides on the degranulation activity. Activation of cytotoxic CD8^+-lymphocytes lead to a release of cytolytic granules, which contain/express lysosomal-associated membrane protein 1 (CD107; LAMP-1). During degranulation, the granule vesicle membranes fuse with the membranes of activated CD8^+-lymphocytes and therefore LAMP-1 can be used as a marker protein for the cytotoxic activity of T-lymphocytes, which can be measured with FACS. After 36 h, 42%±21.4 of the CsA- and 49%±16.8 of the T20K-treated cells contain the degranulation marker LAMP-1 as compared to the control (FIG. 16). This can be interpreted in the way that CsA- and T20K-treated cells have reduced cytotoxicity.
# Jurkat cells = assay: Ca2+ release, Fura-2; assay type: cell-based, human; conditions: CsA, T20K 4 μM, V10K 4 μM
# Description: FIG. 17. Ca^2+ release in human Jurkat and T-cells. Jurkat cells (A) and T-cells (B) 1×10^6 were loaded with 1 μM Fura-2 and 0.02% Puronic F-127 for 30 minutes at 37° C. Cells were centrifuged for 5 minutes at 1200 rpm and resuspended in media [RPMI 1640 with 10% FCS, penicillin (100 U/mL) and streptomycin ([…])]. 100 μL of cell suspension were transferred to a black 96-well plate with a clear flat-bottom. Briefly before analysis the fluorometer Synergy H4 (BioTek) was tempered to 37° C. The fluorescence time course was then measured with: extinction 340/380 nm and emission 510 nm in 30 seconds intervals, continuously shaking. Ca^2+ influx was initiated by adding compounds to the cells (illustrated by the arrow). To receive maximum Ca^2+ release cells were stimulated with PMA (50 ng/mL) and Ionomycin (500 ng/mL) and T-cells additionally with PHA-L (10 μg/mL). For lowest Ca^2+ levels, cells remained untreated.
# Jurkat cells T-cells were treated as described for FIG. 17, supra.
# [3] = system: spleenocytes restimulated with MOG35-55; assay: Cytokine release of spleenocytes from treated EAE mice, ELISA; assay type: cell-based, mouse
# Description: FIG. 21. Effect on cytokine release of ex vivo isolated PBMC at day 3. Spleenocytes of sacrificed mice were isolated and restimulated with MOG35-55 (30 μg/mL) for three days or left untreated. Supernatants of these cells were used for analyzing cytokine release in ELISAs. In (A) interleukin 2 release was highest in splenic T-cells isolated from naïve mouse group that were restimulated with MOG, correlating with disease course. […] There was hardly any cytokine IL4 detectable (E), opposing a TH2 immune response, which was expected.
# Spleens of sacrificed mice were taken and transferred into a 6 cm Petri Dish with 5 mL sterile PBS. To receive a spleenocyte suspension, spleens were meshed and filtered through 70 μm nylon sieve. Cells were centrifuged at 1200 rpm for 5 minutes and resuspended in RPMI 1640 media supplemented with 10% fetal calf serum (FCS), 2 mM L-glutamine, penicillin (100 U/mL), and streptomycin (100 μg/mL). Spleenocytes were cultivated at a concentration of 3×10^6/mL in a 48-well flat-bottom plate (500 μL/well). Cells were stimulated with 30 μg/mL MOG35-55 or left untreated and incubated at 37° C. for three days. Supernatants and cells were taken stored at −20° C. until further experiments. […] After 12 hours MOG or T20K was added to appropriate wells. Supernatants were stored after 24 hours and after 48 hours at −20° C.
# Supernatants of stimulated spleenocytes were analyzed for their IL2, IL17, INFγ, IL4 and IL22 cytokine release using anti-mouse antibodies for ELISA from eBioscience according to the manufacturer's instructions. The color reaction was evaluated at an optical density of 450 nm by the microplate reader Synergy H4 (BioTek).
molecule,measurement,setting,value
"CC(C)C[C@@H]1NC(=O)CNC(=O)[C@H](CC(N)=O)NC(=O)[C@H](CCCNC(=N)N)NC(=O)[C@H]([C@@H](C)O)NC(=O)[C@@H]2CSSC[C@@H]3NC(=O)[C@H]([C@@H](C)O)NC(=O)CNC(=O)CNC(=O)[C@H](C(C)C)NC(=O)[C@@H]4CSSC[C@H](NC(=O)[C@H](CCCCN)NC(=O)[C@H](CSSC[C@H](NC(=O)[C@H](C(C)C)NC(=O)[C@@H]5CCCN5C1=O)C(=O)NCC(=O)N[C@@H](CCC(=O)O)C(=O)N[C@@H]([C@@H](C)O)C(=O)N4)NC(=O)CNC(=O)[C@@H]1CCCN1C(=O)[C@H]([C@@H](C)O)NC(=O)[C@H](CC(N)=O)NC3=O)C(=O)N[C@@H](CO)C(=O)N[C@@H](Cc1c[nH]c3ccccc13)C(=O)N1CCC[C@H]1C(=O)N[C@@H](C(C)C)C(=O)N2 [Kalata T20K] (cyclo(CGETCVGGTCNTPGCKCSWPVCTRNGLPV); disulfide 1-15, 5-17, 10-22 (inferred); ring closure inferred)",CD25 expression after 48 h,[1],46%±18.2
same,CD25 surface expression after 24 hours,[1],79%±10.1
same,cells containing the degranulation marker LAMP-1 as compared to the control,[2],49%±16.8
same,Ca2+ signaling in Jurkat cells,Jurkat cells,did not induce a change in Ca^2+ signaling
same,IL2 release of spleenocytes from mice treated at day 7,"[3]; T20K (7), after MOG stimulation, vs naive group",IL2 release was lower than in naïve group
same,"IL17, IL22 and INFγ release of spleenocytes from pre-treated mice","[3]; T20K (-7, 0)","inhibitory effect could also be demonstrated towards the cytokines IL17, IL22 and INFγ in T-cells of T20K (−7, 0) treated mice, although not significantly"
same,IL2 production of spleenocytes from pre-treated mice,"[3]; T20K day -7 or 0, MOG35-55 30 μg/mL, three days",significant inhibition of the IL2 production
kalata B1 mutant GLPVCGETCKGGTCNTPGCTCSWPVCTRN (SEQ ID No. 10) [Kalata V10K],CD25 expression after 48 h,[1],no significant change in receptorexpression
same,CD25 surface expression after 24 hours,[1],112%±16.3
same,cells containing the degranulation marker LAMP-1 as compared to the control,[2],no influence on the degranulation activity
same,Ca2+ signaling in Jurkat cells,Jurkat cells,did not induce a change in Ca^2+ signaling
